Measurements taken from patent US20230085307A1, “PYRIDAZINONE COMPOUND AND HERBICIDE” (NISSAN CHEMICAL CORPORATION, priority 2019, published 2023).

Legend:
southern crabgrass [1] = experiment: Test Example 5: herbicidal effect by foliage application, plastic box (Table 20, symbol F); assay type: in vivo, southern crabgrass (Digitaria ciliaris); conditions: foliage application, 320 g/ha, evaluated three weeks after application
How it was run: (§1)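 Plants sown in sterilized diluvial soil and grown 14 days in a greenhouse at 25° C to 30° C, then sprayed on the foliage with the compound's emulsion diluted in water to a predetermined herbicide amount. Injury to weeds and crops scored three weeks after application on a visual rating scale.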

chickweed [2] = experiment: Test Example 5: herbicidal effect by foliage application, plastic box (Table 20, symbol P); assay type: in vivo, common chickweed (Stellaria media); conditions: foliage application, 320 g/ha, evaluated three weeks after application
How it was run: as §1

redroot pigweed [3] = experiment: Test Example 5: herbicidal effect by foliage application, plastic box (Table 20, symbol N); assay type: in vivo, redroot pigweed (Amaranthus retroflexus); conditions: foliage application, 320 g/ha, evaluated three weeks after application
How it was run: as §1

persian speedwell [4] = experiment: Test Example 5: herbicidal effect by foliage application, plastic box (Table 20, symbol R); assay type: in vivo, Persian speedwell (Veronica persica); conditions: foliage application, 320 g/ha, evaluated three weeks after application
How it was run: as §1

barnyard grass [5] = experiment: Test Example 4: herbicidal effect by soil treatment (Table 19, symbol H); assay type: in vivo, barnyard grass (Echinochloa crus-galli); conditions: amount of applied herbicide 320 g/ha
How it was run: (§2)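 Seeds were sown in sterilized diluvial soil and covered with about 1.5 cm of soil. An emulsion formulation diluted with water to a predetermined herbicide amount was sprayed evenly onto the soil surface. Plants grew in a greenhouse at 25° C. to 30° C., and the effect was scored three weeks after application using criteria from an earlier test.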

Italian ryegrass [6] = experiment: Test Example 5: herbicidal effect by foliage application, plastic box (Table 20, symbol K); assay type: in vivo, Italian ryegrass (Lolium multiflorum); conditions: foliage application, 320 g/ha, evaluated three weeks after application
How it was run: as §1

barnyard grass [7] = experiment: Test Example 5: herbicidal effect by foliage application, plastic box (Table 20, symbol H); assay type: in vivo, barnyard grass (Echinochloa crus-galli); conditions: foliage application, 320 g/ha, evaluated three weeks after application
How it was run: as §1

velvetleaf [8] = experiment: Test Example 5: herbicidal effect by foliage application, plastic box (Table 20, symbol M); assay type: in vivo, velvetleaf (Abutilon theophrasti); conditions: foliage application, 320 g/ha, evaluated three weeks after application
How it was run: as §1

rice flat sedge = experiment: Test Example 3: herbicidal effect by foliage application, Wagner pot (Table 18, symbol E); assay type: in vivo, rice flat sedge (Cyperus iria); conditions: amount of applied herbicide 320 g/ha
How it was run: (§3)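 Plants were sown in alluvial soil held under 0.1–0.5 cm standing water and grown 14 days in a greenhouse at 25–30 °C. An emulsifiable formulation, water-diluted to the set dose, was then sprayed onto the foliage, and effects were scored three weeks later using previously defined criteria.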

velvetleaf [9] = experiment: Test Example 4: herbicidal effect by soil treatment (Table 19, symbol M); assay type: in vivo, velvetleaf (Abutilon theophrasti); conditions: amount of applied herbicide 320 g/ha
How it was run: as §2

barnyard grass [10] = experiment: Test Example 3: herbicidal effect by foliage application, Wagner pot (Table 18, symbol H); assay type: in vivo, barnyard grass (Echinochloa crus-galli); conditions: amount of applied herbicide 320 g/ha
How it was run: as §3

green foxtail [11] = experiment: Test Example 4: herbicidal effect by soil treatment (Table 19, symbol G); assay type: in vivo, green foxtail (Setaria viridis); conditions: amount of applied herbicide 320 g/ha
How it was run: as §2

wild oat [12] = experiment: Test Example 4: herbicidal effect by soil treatment (Table 19, symbol I); assay type: in vivo, wild oat (Avena fatua); conditions: amount of applied herbicide 320 g/ha
How it was run: as §2

wild oat [13] = experiment: Test Example 5: herbicidal effect by foliage application, plastic box (Table 20, symbol I); assay type: in vivo, wild oat (Avena fatua); conditions: foliage application, 320 g/ha, evaluated three weeks after application
How it was run: as §1

Chinese sprangletop = experiment: Test Example 3: herbicidal effect by foliage application, Wagner pot (Table 18, symbol D); assay type: in vivo, chinese sprangletop (Leptochloa chinensis); conditions: amount of applied herbicide 320 g/ha
How it was run: as §3

lambsquarters [14] = experiment: Test Example 5: herbicidal effect by foliage application, plastic box (Table 20, symbol O); assay type: in vivo, lambsquarters (Chenopodium album); conditions: foliage application, 320 g/ha, evaluated three weeks after application
How it was run: as §1

Italian ryegrass [15] = experiment: Test Example 4: herbicidal effect by soil treatment (Table 19, symbol K); assay type: in vivo, Italian ryegrass (Lolium multiflorum); conditions: amount of applied herbicide 320 g/ha
How it was run: as §2

southern crabgrass [16] = experiment: Test Example 4: herbicidal effect by soil treatment (Table 19, symbol F); assay type: in vivo, southern crabgrass (Digitaria ciliaris); conditions: amount of applied herbicide 320 g/ha
How it was run: as §2

green foxtail [17] = experiment: Test Example 5: herbicidal effect by foliage application, plastic box (Table 20, symbol G); assay type: in vivo, green foxtail (Setaria viridis); conditions: foliage application, 320 g/ha, evaluated three weeks after application
How it was run: as §1

windgrass [18] = experiment: Test Example 5: herbicidal effect by foliage application, plastic box (Table 20, symbol L); assay type: in vivo, windgrass (Apera spica-venti); conditions: foliage application, 320 g/ha, evaluated three weeks after application
How it was run: as §1

persian speedwell [19] = experiment: Test Example 4: herbicidal effect by soil treatment (Table 19, symbol R); assay type: in vivo, Persian speedwell (Veronica persica); conditions: amount of applied herbicide 320 g/ha
Text: [Test Example 4] Herbicidal Effect Test by Soil Treatment
Sterilized diluvial soil was placed in a plastic box having a length of 21 cm, a width of 13 cm, and a depth of 7 cm. The seeds of each of southern crabgrass, green foxtail, barnyard grass, wild oat, blackgrass, Italian ryegrass, windgrass, velvetleaf, redroot pigweed, lambsquarters, chickweed, false cleavers, persian speedwell, corn, soybean, rice, wheat, beet, and rapeseed were sowed in a spot-like manner and covered with the soil having a thickness of about 1.5 cm. Subsequently, the emulsion agent of the compound of the present invention prepared according to Formulation Example 2 was diluted with water so as to achieve a predetermined herbicide amount, and the diluted emulsion agent was uniformly applied to the surface of the soil with a small-sized spray. The plastic box was placed in a greenhouse at 25° C. to 30° C. for growth of the plants. Three weeks after the herbicide application, the effect of the herbicide on each plant was evaluated according to the criteria of Test Example 1.

chickweed [20] = experiment: Test Example 4: herbicidal effect by soil treatment (Table 19, symbol P); assay type: in vivo, common chickweed (Stellaria media); conditions: amount of applied herbicide 320 g/ha
How it was run: as §2

blackgrass [21] = experiment: Test Example 4: herbicidal effect by soil treatment (Table 19, symbol J); assay type: in vivo, blackgrass (Alopecurus myosuroides); conditions: amount of applied herbicide 320 g/ha
How it was run: as §2

blackgrass [22] = experiment: Test Example 5: herbicidal effect by foliage application, plastic box (Table 20, symbol J); assay type: in vivo, blackgrass (Alopecurus myosuroides); conditions: foliage application, 320 g/ha, evaluated three weeks after application
How it was run: as §1

lambsquarters [23] = experiment: Test Example 4: herbicidal effect by soil treatment (Table 19, symbol O); assay type: in vivo, lambsquarters (Chenopodium album); conditions: amount of applied herbicide 320 g/ha
How it was run: as §2

windgrass [24] = experiment: Test Example 4: herbicidal effect by soil treatment (Table 19, symbol L); assay type: in vivo, windgrass (Apera spica-venti); conditions: amount of applied herbicide 320 g/ha
How it was run: as §2

redroot pigweed [25] = experiment: Test Example 4: herbicidal effect by soil treatment (Table 19, symbol N); assay type: in vivo, redroot pigweed (Amaranthus retroflexus); conditions: amount of applied herbicide 320 g/ha
How it was run: as §2

## CCCC(=O)Oc1c(C)nn(C)c(=O)c1-c1c(-c2ccccc2)sc2ccc(C)cc12 [2-133]
Southern crabgrass [1]
  herbicidal effect on F: southern crabgrass: 0 (Herbicidal rate of 5% or less (almost no effect))
Chickweed [2]
  herbicidal effect on P: chickweed: 5 (Herbicidal rate of 90% or more (almost completely withered))
Redroot pigweed [3]
  herbicidal effect on N: redroot pigweed: 5 (Herbicidal rate of 90% or more (almost completely withered))
Persian speedwell [4]
  herbicidal effect on R: persian speedwell: 2 (Herbicidal rate of 20% or more and less than 40%)
Barnyard grass [5]
  H: barnyard grass, herbicidal effect rating: 0 (Herbicidal rate of 5% or less (almost no effect))
Italian ryegrass [6]
  herbicidal effect on K: Italian ryegrass: 3 (Herbicidal rate of 40% or more and less than 70%)
Barnyard grass [7]
  herbicidal effect on H: barnyard grass: 0 (Herbicidal rate of 5% or less (almost no effect))
Velvetleaf [8]
  herbicidal effect on M: velvetleaf: 5 (Herbicidal rate of 90% or more (almost completely withered))
Rice flat sedge
  herbicidal effect on E: rice flat sedge: 5 (Herbicidal rate of 90% or more (almost completely withered))
Velvetleaf [9]
  M: velvetleaf, herbicidal effect rating: 0 (Herbicidal rate of 5% or less (almost no effect))
Barnyard grass [10]
  herbicidal effect on H: barnyard grass: 0 (Herbicidal rate of 5% or less (almost no effect))
Green foxtail [11]
  G: green foxtail, herbicidal effect rating: 0 (Herbicidal rate of 5% or less (almost no effect))
Wild oat [12]
  I: wild oat, herbicidal effect rating: 0 (Herbicidal rate of 5% or less (almost no effect))
Wild oat [13]
  herbicidal effect on I: wild oat: 0 (Herbicidal rate of 5% or less (almost no effect))
Chinese sprangletop
  herbicidal effect on D: Chinese sprangletop: 0 (Herbicidal rate of 5% or less (almost no effect))
Lambsquarters [14]
  herbicidal effect on O: lambsquarters: 4 (Herbicidal rate of 70% or more and less than 90%)
Italian ryegrass [15]
  K: Italian ryegrass, herbicidal effect rating: 0 (Herbicidal rate of 5% or less (almost no effect))
Southern crabgrass [16]
  F: southern crabgrass, herbicidal effect rating: 0 (Herbicidal rate of 5% or less (almost no effect))
Green foxtail [17]
  herbicidal effect on G: green foxtail: 2 (Herbicidal rate of 20% or more and less than 40%)
Windgrass [18]
  herbicidal effect on L: windgrass: 0 (Herbicidal rate of 5% or less (almost no effect))
Persian speedwell [19]
  R: persian speedwell, herbicidal effect rating: 0 (Herbicidal rate of 5% or less (almost no effect))
Chickweed [20]
  P: chickweed, herbicidal effect rating: 5 (Herbicidal rate of 90% or more (almost completely withered))
Blackgrass [21]
  J: blackgrass, herbicidal effect rating: 0 (Herbicidal rate of 5% or less (almost no effect))
Blackgrass [22]
  herbicidal effect on J: blackgrass: 0 (Herbicidal rate of 5% or less (almost no effect))
Lambsquarters [23]
  O: lambsquarters, herbicidal effect rating: 5 (Herbicidal rate of 90% or more (almost completely withered))

## COc1cc(Cl)ccc1-c1sc2ccc(F)cc2c1-c1c(O)c(C)nn(C)c1=O [2-368]
Barnyard grass [5]
  herbicidal effect, H: barnyard grass: 0 (Herbicidal rate of 5% or less (almost no effect))
Windgrass [24]
  herbicidal effect, L: windgrass: 4 (Herbicidal rate of 70% or more and less than 90%)
Rice flat sedge
  herbicidal effect on E: rice flat sedge: 3 (Herbicidal rate of 40% or more and less than 70%)
Velvetleaf [9]
  herbicidal effect, M: velvetleaf: 0 (Herbicidal rate of 5% or less (almost no effect))
Barnyard grass [10]
  herbicidal effect on H: barnyard grass: 4 (Herbicidal rate of 70% or more and less than 90%)
Green foxtail [11]
  herbicidal effect, G: green foxtail: 0 (Herbicidal rate of 5% or less (almost no effect))
Wild oat [12]
  herbicidal effect, I: wild oat: 0 (Herbicidal rate of 5% or less (almost no effect))
Chinese sprangletop
  herbicidal effect on D: Chinese sprangletop: 3 (Herbicidal rate of 40% or more and less than 70%)
Italian ryegrass [15]
  herbicidal effect, K: Italian ryegrass: 0 (Herbicidal rate of 5% or less (almost no effect))
Redroot pigweed [25]
  herbicidal effect, N: redroot pigweed: 2 (Herbicidal rate of 20% or more and less than 40%)
Southern crabgrass [16]
  herbicidal effect, F: southern crabgrass: 0 (Herbicidal rate of 5% or less (almost no effect))
Persian speedwell [19]
  herbicidal effect, R: persian speedwell: 0 (Herbicidal rate of 5% or less (almost no effect))
Chickweed [20]
  herbicidal effect, P: chickweed: 0 (Herbicidal rate of 5% or less (almost no effect))
Blackgrass [21]
  herbicidal effect, J: blackgrass: 0 (Herbicidal rate of 5% or less (almost no effect))
Lambsquarters [23]
  herbicidal effect, O: lambsquarters: 3 (Herbicidal rate of 40% or more and less than 70%)
